Experimental data reported in PMC3849007 (Journal of Experimental & Clinical Cancer Research : CR, 2013).

Legend:
hERG = molecular target: T1, hERG (Homo sapiens, UniProt Q12809); test: hERG tail current inhibition, patch clamp assay; format: cell-based; settings: human, HEK293 cells (hERG study), 10 μM, HEK293 cells, read-out: hERG % inhib. (10 μM)
T1 construct: expressed in transfected cells; host or cells: HEK293
Procedure: (§1) For hERG study, HEK293 cells were cultured (1–7 days) in DMEM/GlutaMax-1 + 10% FBS and were plated on collagen-coated dishes (about 2×10^4 cells/dish). The cell was held at -80 mV. A 50-millisecond pulse to -40 mV was delivered to measure the leaking currents, which were subtracted from the tail currents online. […] This paradigm was delivered once every 5 seconds to monitor the current amplitude. After the current amplitude stabilized, the test compound was delivered to the extracellular medium by a rapid solution changer perfusion system. During perfusion, the cell was repetitively stimulated with the protocol described above, and the current amplitude was continuously monitored. Data were acquired and analyzed by using pClamp (Axon Instruments), and Excel (Microsoft), and are reported as mean and individual values. The degree of inhibition (%) was obtained by measuring the tail current amplitude before and after drug superfusion (the difference current was normalized to control and multiplied by 100 to obtain the percent of inhibition). […] The concentration-response relationship of each compound was constructed from the percentage reductions of current amplitude by sequential concentrations. β2-adrenergic receptor CHO expressing cells were used for the receptor inhibition assay as described. The results are expressed as a percent of inhibition of control specific binding (100 - (measured specific binding/control specific binding) × 100)) obtained in the presence of the test compounds. The specific ligand binding to the receptors is defined as the difference between the total binding and the nonspecific binding determined in the presence of an excess of unlabelled ligand. All the in-vivo experiments were carried out at the Regina Elena Cancer Institute. All procedures involving animals and care were performed in compliance with our institutional animal care guidelines and with international directives (directive 2010/63/EU of the European parliament and of the council; Guide for the Care and Use of Laboratory Animals, United States National Research Council, 2011).

[1] = molecular target: T2, hERG (human Ether-a-go-go Related Gene) tail current (Homo sapiens, UniProt Q12809); test: hERG tail current inhibition, patch clamp assay; format: cell-based
T2 construct: expressed in transfected cells; host or cells: HEK293
T2 sequence (Q12809 whole entry): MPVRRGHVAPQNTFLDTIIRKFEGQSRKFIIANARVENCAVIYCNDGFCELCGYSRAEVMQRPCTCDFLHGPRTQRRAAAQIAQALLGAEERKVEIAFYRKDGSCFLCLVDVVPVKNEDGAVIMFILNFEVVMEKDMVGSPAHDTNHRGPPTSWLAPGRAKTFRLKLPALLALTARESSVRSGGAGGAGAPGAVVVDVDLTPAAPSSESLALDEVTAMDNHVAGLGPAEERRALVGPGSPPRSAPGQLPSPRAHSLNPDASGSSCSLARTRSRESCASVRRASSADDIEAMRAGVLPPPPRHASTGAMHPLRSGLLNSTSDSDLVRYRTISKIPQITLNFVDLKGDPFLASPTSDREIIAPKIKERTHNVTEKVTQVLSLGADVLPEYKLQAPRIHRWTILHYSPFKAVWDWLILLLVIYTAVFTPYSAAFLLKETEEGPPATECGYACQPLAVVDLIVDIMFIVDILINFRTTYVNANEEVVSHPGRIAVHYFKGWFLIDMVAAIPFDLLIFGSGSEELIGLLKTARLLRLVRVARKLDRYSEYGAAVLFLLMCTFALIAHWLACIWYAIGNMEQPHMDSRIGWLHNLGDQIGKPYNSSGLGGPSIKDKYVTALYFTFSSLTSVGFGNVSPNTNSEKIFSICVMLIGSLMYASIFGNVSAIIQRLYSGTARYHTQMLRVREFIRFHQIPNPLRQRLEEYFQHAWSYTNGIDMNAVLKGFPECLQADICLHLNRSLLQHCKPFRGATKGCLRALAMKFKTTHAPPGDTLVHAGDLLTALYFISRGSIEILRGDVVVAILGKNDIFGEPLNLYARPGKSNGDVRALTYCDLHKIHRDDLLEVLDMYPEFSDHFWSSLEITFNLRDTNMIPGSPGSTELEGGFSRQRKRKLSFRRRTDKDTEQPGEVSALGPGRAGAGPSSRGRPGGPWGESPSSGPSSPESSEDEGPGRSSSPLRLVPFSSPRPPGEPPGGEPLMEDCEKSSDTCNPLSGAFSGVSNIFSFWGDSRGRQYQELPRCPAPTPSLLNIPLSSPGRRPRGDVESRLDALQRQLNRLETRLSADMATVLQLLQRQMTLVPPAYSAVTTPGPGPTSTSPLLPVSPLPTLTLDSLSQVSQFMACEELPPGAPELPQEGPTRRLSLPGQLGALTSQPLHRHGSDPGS
Procedure: as §1

BJ-EHLT fibroblasts = test: Proliferation assay, transformed fibroblasts; format: cell-based, human; settings: 0.5 μM, culture day 2 to 8
Procedure: BJ fibroblasts expressing hTERT (BJ-hTERT) or hTERT and SV40 early region (BJ-EHLT), were obtained as previously reported. Cells were grown in Dulbecco Modified Eagle Medium (D-MEM, Invitrogen Carlsbad, CA, USA) supplemented with 10% fetal calf serum, 2 mM L-glutamin and antibiotics.
5 × 10^4 cells were seeded in 60-mm Petri plates (Nunc, MasciaBrunelli, Milano, Italy) and 24 h after plating, 0.5 μM of freshly dissolved compound was added to the culture medium. Cell counts (Coulter Counter, Kontron Instruments, Milano, Italy) and viability (trypan blue dye exclusion) were determined daily, from day 2 to day 8 of culture.

[2] = system: h-Tel 5'-d[AGGG(TTAGGG)3]-3' (DNA, G4) AGGGTTAGGGTTAGGGTTAGGG; test: CD melting at 290 nm; settings: 110 mM K+ (100 mM KCl, potassium phosphate), 10 mM potassium phosphate, pH 7.0, 4 μM DNA, 3.5 mol equiv. ligand
[3] = system: h-Tel quadruplex DNA 5′-d[AGGG(TTAGGG)3]-3′; test: Surface plasmon resonance, quadruplex DNA; settings: for Surface plasmon resonance K, Quadruplex (Q) DNA: 10 mM HEPES, 200 mM KCl, 3 mM EDTA, 0.01% P20, pH 7.4, equilibrium binding constant
Excerpt: Oligonucleotides 5′-biotin-d[AG3(T2AG3)3] quadruplex and 5′-biotin-CGA3T3C(CT)2GA3T3CG were purchased from Midland Certified Reagent Company (Midland, TX).
In the present work these measurements were repeated comparing ligand binding to the same h-Tel sequence but with a different duplex sequence 5′-d[CGA3T3C(CT)2GA3T3CG]-3′ as comparator.

[4] = system: h-Tel 5'-d[AGGG(TTAGGG)3]-3' (DNA, G4) AGGGTTAGGGTTAGGGTTAGGG; test: CD spectroscopy, induced anti-parallel structure; settings: no significant K+; 298 K; 3.5 molar equivalents of ligand; band at 290 nm emerges
anaesthetised guinea pig = test: Cardiovascular effects in anaesthetised guinea pig; format: in vivo; settings: escalating iv doses 0.25, 0.5, 1 mg/kg, 60 min apart
Procedure: After anaesthesia with approximately 40 to 60 mg/kg (i.p.) sodium pentobarbitone, a jugular vein was cannulated for administration of the vehicle or test substance. Arterial blood pressure (systolic, diastolic and mean) was measured via a catheter inserted into the carotid artery, heart rate was derived electronically from the pressure waveform and a sample of arterial blood determined blood gases (PO2 and PCO2), O2 saturation, standard bicarbonate (HCO3), pH and base excess before the start of the experiment. Electrocardiogram (ECG) limb electrodes recorded the standard lead II configuration and QTcB interval (calculated as QTcB = QT/(√RR)). The animal was allowed to stabilise after completion of the surgical preparation for a period of at least 15 min. Then, after a further 10 min period of continuous recording of ECG and haemodynamic variables, the test substance or vehicle was administered intravenously as 3 iv infusions with each administration separated by 60 min.
Several limitations exist in the use of mouse and rat models for the study of cardiotoxic effects in pharmacology, which regard differences in myocardial function compared to the human heart. […]

M2 muscarinic receptor = molecular target: T3, M2 muscarinic receptor (Homo sapiens, UniProt P08172); test: Cerep ExpresSProfile receptor screen, M2; settings: data not shown, read-out: % inhibition of ligand binding, M2 muscarinic receptor
T3 construct: purchased Cerep (ExpresSProfile screen, contract service)
T3 sequence (P08172 whole entry): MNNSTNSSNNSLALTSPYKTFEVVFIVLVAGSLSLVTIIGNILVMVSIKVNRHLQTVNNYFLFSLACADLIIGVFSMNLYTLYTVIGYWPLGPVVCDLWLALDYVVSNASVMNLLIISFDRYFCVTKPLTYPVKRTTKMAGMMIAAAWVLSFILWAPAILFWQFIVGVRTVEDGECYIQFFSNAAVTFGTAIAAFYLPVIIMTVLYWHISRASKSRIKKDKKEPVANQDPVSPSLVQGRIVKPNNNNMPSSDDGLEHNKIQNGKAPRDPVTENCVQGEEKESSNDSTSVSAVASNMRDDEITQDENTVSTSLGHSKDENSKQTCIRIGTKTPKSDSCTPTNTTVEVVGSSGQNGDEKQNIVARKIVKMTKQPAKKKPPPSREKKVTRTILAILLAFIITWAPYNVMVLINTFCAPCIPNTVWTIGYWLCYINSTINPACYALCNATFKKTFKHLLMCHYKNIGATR
Procedure: To investigate the molecular bases of cardio toxicity, the agent was tested for its potential to interact with a panel of 54 pharmacological receptors, the majority being human recombinant receptors (Cerep ExpresSProfile screen) (http://www.cerep.fr).

[5] = system: anaphase bridges in BJ-EHLT fibroblasts; format: cell-based; settings: 0.5 μM, 24 hrs
Excerpt: Anaphase bridges were scored by counting 400 nuclei per sample in triplicate. Histograms show the fold induction in treated versus untreated samples. Right panels show representative images of anaphase bridges in the treated samples at 63× magnification. Histograms show the mean of three independent experiments. Error bars indicate ± SD. (*P < 0.05).
As a result of chromosome ends fusion consequent to telomere damage, chromatin bridges are occasionally observed between daughter cells after mitosis (also called anaphase bridges).

telomerase = molecular target: telomerase; design: method as in PMID 15304549; settings: Trap assay; read-out: telomerase inhibition IC50; cited from earlier work
[6] = design: method as in doi:10.1016/S0040-4020(01)90102-4; settings: cited from earlier work

T1 sequence (Q12809 whole entry): as the sequence (Q12809 whole entry) above

SMILES | inhibition at 10 µM (hERG) | IC50 [1] | day of maximum effect on cell proliferation (BJ-EHLT fibroblasts) | ∆Tm ([2]; Tm 85 ± 3) | Surface plasmon resonance K, Quadruplex (Q) DNA [3] | binding [4] | effect on QTcB interval (anaesthetised guinea pig; all doses, listed as RHPS4) | effect on heart rate (anaesthetised guinea pig; cumulative 1.75 mg/kg) | inhibition at 1 µM (M2 muscarinic receptor) | anaphase bridges frequency, fold induction vs untreated [5] | IC50 (telomerase) | solubility [6] | ∆Tm ([2]; Tm 86 ± 3) | Ratio Q/D (SPR) ([3]; quadruplex K / duplex K)
CC(=O)Nc1ccc2c(c1)c1cccc3c1c([n+]2C)-c1ccccc1N3C [Compound 3, 3-acetylamino-8,13-dimethyl-8H-quino[4,3,2-kl]-acridinium iodide] | 21% | 18 µM | seven | 15 °C | 8e+06 M⁻¹ | yes | – | – | – | – | – | – | – | –
Cc1cc2c3c([n+](C)c4ccc(F)cc4c3c1)-c1cc(F)ccc1N2C [Compound 1, 3,11-Difluoro-6,8,13-trimethyl-8H-quino[4,3,2-kl]acridinium metho-sulfate] | 100% | 0.2 µM | 6 days | – | 8.3e+06 M⁻¹ | yes | marked and sustained increase in QTcB interval | dose-related decrease in heart rate | > 95% | ten | 0.33 µM | high solubility | 16 °C | 13.8
